Laboratory results as given in patent US20030134342A1, “Binding-specific peptides, binding-specific carrier molecules, and uses thereof” (priority 2001, published 2003).

Tests used:
[1] = tested on: AML bone marrow cells; experiment: Methylcellulose culture of AML bone marrow cells with peptides: proliferation (colonies) and differentiation (morphology); format: cell-based, human; conditions: for Activation of Proliferation GM-CSF / Cell Differentiation GM-CSF: with GM-CSF; for Activation of Proliferation (Patient No.) +GM-CSE: peptide with GM-CSF; for induction of differentiation of the patient cells (FIG. 8): AML bone marrow cells, 14 days methylcellulose; for Activation of Differentiation: patient numbers
Description: The effect of various peptides were analyzed for their biological activity on cells from a patient with acute myelogenous leukemia. The AML cells were cultured into a semi-solid medium of methylcellulose in order to determine the cloning efficiency and the differentiation of the cells. The various peptides were introduced into the semi-solid cell culture at a concentration of 10^−4 M (0.1 mM) peptide. After 14 days continuous incubation of the cell cultures, the morphology of the cells were analyzed. The data are shown in FIG. 7 for the cultures and show the percentage of immature cells in the culture (solid black), the percentage of small myeloblasts (solid white), the percentage of young cells (dark gray), and the relative percentage of monocytes to […] (light gray). The data regarding the biological response of AML bone marrow cells in the presence of the various peptides is shown in the table below.

[2] = tested on: CML cells; experiment: ELISA binding of phage displaying peptides to fixed cells: CML cells; set-up: species or system human; conditions: in words
Description: (§1) Preliminary experiments were performed to identify specific peptides by using cells from patients diagnosed with CLL, CML, and AML. The screening was performed by incubating the cells with the phage-peptides from the library. This incubation allows interaction between the peptide and the cell. The binding step was followed by several washes to eliminate free phage. Phage bound on the cell surface was eluted.
(§2) After the last round of binding with one cell type, the eluted phage was plated on an agar plate with the appropriate selection antibiotics. Each individual colony, corresponding to one individual peptide sequence, was amplified in a 96-well plate. After purification, these peptides were tested for their ability to bind to the cells in a microtiter plate by ELISA.
(§3) Each peptide was dispensed in a 96-well plate, containing cells previously fixed. Each colony was tested in a triplicate assay with the appropriate controls. After incubation of cells with an individual clone, the wells were washed to eliminate free phage. The bound phages were detected by using a monoclonal anti-M13 antibody/horseradish peroxidase (HRP) conjugate. After addition of the HRP substrate, the intensity of the coloration was measured by spectrophotometry. The light absorbance values (optical density values, O.D. values) are proportional to the number of phage bound to the cells.
(§4) The binding to various cell types were examined to evaluate the cellular specificity of the phage clones. For example, the clones from phage eluted from CLL patient cells were assayed for their ability to bind cells from an AML patient. Cells from normal donors (non-leukemic) were also evaluated to ascertain leukemia cell specificity.
(§5) Peripheral blood and bone marrow samples were collected from patients after informed consent. The samples were collected in tubes containing sodium citrate. Mononuclear cells were isolated by Ficoll-Hypaque density gradient separation and collection of the cells at a density of 1.077 g/mL.
(§6) The wells of a 96-well plate were pre-treated with 100 μL of poly-L-lysine (0.01 mg/mL in phosphate-buffered saline, 120 mM NaCl, 2.7 mM KCl, 10 mM phosphate buffer, “PBS”) for 2-16 hours at room temperature. After draining the poly-L-lysine from the wells, the excess poly-L-lysine was removed from the wells by flicking. The cells were washed with PBS, then suspended in PBS and diluted to a final concentration of […]. The cell suspension (200 μL; 250,000 cells) were added to each well needed for the assay.
(§7) The plates were centrifuged at 500 g for about 5 minutes in a microplate carrying centrifuge when available. The cells were fixed to the wells through the addition of glutaraldehyde (100 μL of 0.5%) and incubating at room temperature for about an hour. The glutaraldehyde was removed and the cell-coated wells washed once with PBS. Alternatively, the cells were permitted to settle to the well bottoms for about 4 hours at 37° C., and the glutaraldehyde fixative was added after removing the PBS.
(§8) A glycine solution (200 μl of 0.1 M glycine in PBS) containing bovine serum albumin (BSA; 1%) was added to the wells and permitted to incubate for 30 minutes to block excess glutaraldehyde. The glycine was removed, and the cell-coated wells washed once with PBS. A sodium pyrophosphate solution (200 μL of 0.3 mg/mL NaPPi) was added to the wells and incubated for an hour at room temperature to neutralize lysine charges. The pyrophosphate solution was removed and the wells washed once with PBS. Multiwell microtiter plates with cell-coated wells were stored at 4° C. with fresh PBS solution in the coated wells.
(§9) The cells to be studied for binding were suspended in PBS and adsorbed onto to a poly-L-lysine pretreated 96-well plate and kept at 4° C. The PBS was removed from the wells and an H2O2 solution in PBS (6% H2O2 in 200 μL/well) was added. […]

[3] = tested on: CLL cells; experiment: ELISA binding of phage displaying peptides to fixed cells: CLL cells; set-up: species or system human; conditions: in words
Description: as §1, §2, §3, §4, §5, §6, §7, §8, §9

[4] = tested on: AML cells; experiment: ELISA binding of phage displaying peptides to fixed cells: AML cells; set-up: species or system human; conditions: in words
Description: as §1, §2, §3, §4, §5, §6, §7, §8, §9

[5] = tested on: all myeloid cells, both malignant and nonmalignant; experiment: ELISA binding of phage displaying peptides to fixed cells: all myeloid cells; set-up: species or system human; conditions: in words
Description: as §1, §2, §3, §4, §5, §6, §7, §8, §9

[6] = tested on: normal peripheral blood cells (lymphocytes and granulocytes); experiment: ELISA binding of phage displaying peptides to fixed cells: normal peripheral blood cells; set-up: species or system human; conditions: in words
Description: as §1, §2, §3, §4, §5, §6, §7, §8, §9

[7] = tested on: human bone marrow AML cells; experiment: Effect of phage-peptides on differentiation, cell number and viability of freshly obtained AML patient bone marrow cells cultured seven days; format: cell-based; conditions: for Number of Cells / Percent Differentiation: phage-peptides
Source text: The effect of various phage-peptides were studied on the differentiation of cells from two AML patients.

[8] = fraction, not explained, peptide alone
[9] = numbers of the AML patients whose cells responded
[10] = peptides in bacteriophage, AML cells cultured seven days in vitro

CDEKRGPNEC [B4 C10]
Activation of Proliferation [1, 8]: 1/6
Cell Differentiation [1, 8]: 2/4
Activation of Proliferation GM-CSF ([1]; fraction, not explained): 1/2
Cell Differentiation GM-CSF ([1]; fraction, not explained): 0/2
Activation of Proliferation (Patient No.) ([1]; numbers of the AML patients whose cells responded, peptide alone, 10^−4 M, 14 days): 9
Activation of Proliferation (Patient No.) +GM-CSE [1, 9]: 11

CEFQQWSGKC [G5 12-8B]
binding of phage displaying the peptide to CML cells [2]: bind
binding of phage displaying the peptide to CLL cells [3]: bind
binding of phage displaying the peptide to AML cells [4]: bind
binding of phage displaying the peptide to all myeloid cells, both malignant and nonmalignant [5]: bind
binding of phage displaying the peptide to blood cells (lymphocytes or granulocytes) [6]: bind

CIEETAAKGC [Peptide A2A, A2 with R replaced by A]
Activation of Proliferation [1, 8]: 4/11
Cell Differentiation [1, 8]: 3/8
Inhibition of Proliferation [1, 8]: 1/11
Activation of Proliferation GM-CSF ([1]; fraction, not explained): 2/4
Cell Differentiation GM-CSF ([1]; fraction, not explained): 1/4
activity on cell differentiation (FIG. 9, another example) ([1]; in words): have a biological activity
activity on cell differentiation compared with the peptide with cysteine residues (FIG. 8) ([1]; in words): higher activity
induction of differentiation of the patient cells (FIG. 8) ([1]; in words): able to induce the differentiation
Inhibition of Proliferation ([1]; numbers of the AML patients whose cells responded, peptide alone): 10
Activation of Differentiation [1]: 3

CNELHMKQHC [G7 12-8B]
Activation of Proliferation [1, 8]: 2/6
Cell Differentiation [1, 8]: 4/5
Activation of Proliferation GM-CSF ([1]; fraction, not explained): 0/2
Cell Differentiation GM-CSF ([1]; fraction, not explained): 0/2

CNHVCSRLGC [B6 12-8B]
Activation of Proliferation [1, 8]: 5/14
Cell Differentiation [1, 8]: 3/13
Inhibition of Proliferation [1, 8]: 3/14
Activation of Proliferation GM-CSF ([1]; fraction, not explained): 3/5
Cell Differentiation GM-CSF ([1]; fraction, not explained): 2/5

CNNATFEDGC [G2 12-8A]
Activation of Proliferation [1, 8]: 6/14
Cell Differentiation [1, 8]: 2/12
Inhibition of Proliferation [1, 8]: 1/14
Activation of Proliferation GM-CSF ([1]; fraction, not explained): 2/5
Cell Differentiation GM-CSF ([1]; fraction, not explained): 2/5

CNNATVEDEC [C8 12-8B]
Activation of Proliferation [1, 8]: 2/8
Cell Differentiation [1, 8]: 1/8
Activation of Proliferation GM-CSF ([1]; fraction, not explained): 1/2
Cell Differentiation GM-CSF ([1]; fraction, not explained): 1/2

DEKRGPNE [B4(1)]
binding of phage displaying the peptide to CML cells [2]: bind
binding of phage displaying the peptide to AML cells [4]: bind
Number of Cells ([7]; Patient 1): 1.3 106
Number of Cells ([7]; Patient 2): 0.25 106
Percent Differentiation ([7]; Patient 2): 53%
Percent differentiated in Specimen 2 [7, 10]: 53%

EFQQWSGK [B7(1)]
binding of phage displaying the peptide to CML cells [2]: bind
binding of phage displaying the peptide to CLL cells [3]: not
binding of phage displaying the peptide to AML cells [4]: bind

EFQQWSGK [G2 11-24]
binding of phage displaying the peptide to CML cells [2]: bind and binds
binding of phage displaying the peptide to AML cells [4]: bind and binds
Number of Cells ([7]; Patient 1): 1.11 106
Percent Differentiation ([7]; Patient 1): 16.2%
Number of Cells ([7]; Patient 2): 0.25 106
Percent Differentiation ([7]; Patient 2): 39%
Percent differentiated in Specimen 1 ([7]; peptides in bacteriophage, AML cells cultured seven days in vitro, Specimen 1): 16%
Percent differentiated in Specimen 2 [7, 10]: 39%

EFQQWSGK [G5 12-8B no Cys]
Activation of Differentiation [1]: 3

EFQQWSGK [H3 11-24]
binding of phage displaying the peptide to CLL cells [3]: bind

IEETARKG [A2 11-24 no Cys]
Activation of Proliferation [1, 8]: 4/14
Cell Differentiation [1, 8]: 4/13
Activation of Proliferation GM-CSF ([1]; fraction, not explained): 1/2
Cell Differentiation GM-CSF ([1]; fraction, not explained): 2/2
activity on cell differentiation compared with the peptide with cysteine residues (FIG. 8) ([1]; in words): higher activity
induction of differentiation of the patient cells (FIG. 8) ([1]; in words): able to induce the differentiation
Activation of Proliferation (Patient No.) +GM-CSE [1, 9]: 11
